Assay results from patent US10955352B2, “Method for assessing a state of a living cell” (Agency for Science, Technology and Research, priority 2016, dated 2021).

System: HeLa cells
Assay: SERS detection and quantification of sialic acid on single living HeLa cells with DBA tag (HC-PCF)
Type: cell-based
Experimental: HeLa cells were cultured in Dulbecco's modified eagle medium (DMEM) with 1% penicillin streptomycin (Gibco) and 10% fetal bovine serum (Gibco) in the dark with 5% CO2 and 37° C. until they were confluent. The cells were then harvested by adding 1×EDTA trypsin of appropriate volume for 4 min, followed by addition of DMEM of double that volume to neutralize the trypsin. The harvested cells were centrifuged at 1,500 rpm for 3 mins. The supernatant was removed and the cells were suspended with DMEM to achieve a cell concentration of 5000 cells/ml. Two milliliter of cell suspension was seeded per well in a six-well plate and allowed to grow for 48 hours.
After incubation, DMEM was removed from each well and the adhered cells were rinsed lightly with 1×PBS which was subsequently removed. Four wells were used in our experiment. In order to reduce the probability of DBA binding onto sites of sialic acid on the surface of the cell membrane, thus mimicking a cell with lowered sialic acid level, 10 mM of phenyl-boronic acid (PBA) (Sigma Aldrich) dissolved in DMEM and 1% DMSO (Merck Millipore) were added to one well (Well A) and left to incubate for 24 hours. […]
Post-incubation washing was performed for all the wells and 10 mM of DBA (Sigma Aldrich) dissolved in DMEM and 1% DMSO was added into wells A, B and C, with incubation time of 4 hours. […] Supernatant were removed after centrifugation and the cells are ready for SERS sample preparation. […]
SERS spectra were recorded using a Raman microscope system (Renishaw InVia) with a 633 nm excitation laser and equipped with a grating (spectral resolution of about 1.8 cm^−1). […]
In order to calculate the amount of sialic acid on cell for Sialic acid and (+)Sialic acid samples, intensity of the 2,000 cm^−1 peak was obtained from the SERS measurement (FIG. 10A). […] The number of sialic acid molecules may be quantified by estimating the amount of DBA molecules from the trend line as the binding between DBA molecule to the sialic acid molecule is one by one. […]

Row | Structure (SMILES) | 2,000 cm^-1 peak in Raman spectrum (DBA binding to sialic acid) after pre-treatment (HeLa cells, 10 mM PBA 24 hours, then 10 mM DBA 4 hours) | calculated sialic acid amount on a single HeLa cell (5 μM prednisolone 72 hours, then 10 mM DBA 4 hours, estimated from DBA calibration curve of 2,000 cm^-1 peak) [fmol] | intensity at 2,000 cm^-1 (DBA alkyne peak, sialic acid expression) versus positive control (HeLa cells, 5 μM prednisolone 72 hours, then DBA)
1 | OB(O)c1ccccc1 [PBA, phenyl-boronic acid] | negligible presence of that peak |  | 
2 | C[C@]12C=CC(=O)C=C1CC[C@@H]1[C@@H]2[C@@H](O)C[C@@]2(C)[C@H]1CC[C@]2(O)C(=O)CO [prednisolone] |  | 6.782 | higher than that of the positive control
